Experimental data: patent US8609695B2, “Methods of treating and/or suppressing insulin resistance” (Endorecherche, Inc., priority 1999, dated 2013)

Legend:
aged Sprague-Dawley rats = settings: reduced from 600, without affecting food intake; cited from earlier work
[1] = test system: lean and obese Zucker female rats; assay: Energy balance and lipid-lipoprotein metabolism in Zucker female rats (Example 8B); type: in vivo, Rattus norvegicus; settings: for Lipoprotein lipase activity White retroperitoneal / Lipoprotein lipase activity soleus / Plasma glucose / Plasma insulin / Plasma total cholesterol / Plasma triglycerides / Weight: 2.5 mg/kg orally once daily, 14 days
Protocol: The objective of this study was to determine the cffect of EM-652.HCl on energy balance and lipid-lipoprotein metabolism in lean and obese Zucker female rats. For this purpose, EM-652.HCl (2.5 mg/kg) was administered orally (gavage) once daily for 14 days to intact lean and obese Zucker female rats.
d) Diet: • During the acclimation period, rats received a commercial rodent diet (Purina, #5075) and tap water ad libitum. During study period, rats received the following diet (diet #3) composed of (g/100 g): Starch, 31.2; Dextrose, 31.2; Casein, 20.0; Corn oil, 6.4; dl-Methionine, 0.3; Vitamin mix, 1.0; AIN-76 mineral mix, 4.9; Fiber, 5.0. Rats were fasted (with access to water only) around 07 h00 the morning of their necropsy day. Randomixation:
Sixteen lean and sixteen obese intact female rats were assigned to 4 groups of 8 rats for conduct of the study outlined below.
Administration of the tested compound or vehicle started on Day 1 of the study. The tested compound EM-652.HCl was given as suspension in 0.4% methylcellulose by oral gavage (0.5 ml/gavage/rat) once daily for 14 days. Rats from control groups received the vehicle alone (0.5 ml/gavage/rat) for the same time period.
During the acclimation period, animals were weighed two days prior to the start of dosing for randomization. Then, rats were weighed on day 1 of the study and every 2 days during the study period as well as on the day of necropsy. Body weights were recorded with a precision of 1 g.
Following an approximative 6-hour fasting period, animals were necropsied (approximately 30 hours after the last dosing). They were anesthesized with ketamine-xylazine and blood drawn by cardiac punction.
Blood lipids (Total cholesterol (CHOL) and Triglycerides (TG)) and glucose were measured on frozen plasma samples using the Boehringer Mannheim Diagnostic Hitachi 911 Analyzer (Boehringer Mannheim Diagnostic Laboratory Systems). Circulating hormones and substrates (Leptin, Insulin, corticosterone) were measured on frozen plasma samples with the following kits: • Leptin: Linco RIA kit • Insulin: Linco RIA kit Organs and Tissues Collected
The retroperitoneal adipose tissue and the soleus (muscle) were collected and frozen in liquid nitrogen for further determination of lipoprotein lipase (LPL) activity.

[2] = test system: ovariectomized female rats; assay: SERM comparison, energy balance and lipid-lipoprotein metabolism (Example 10); type: in vivo, Rattus norvegicus; settings: OVX rats, 20 days
Outline: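 Ovariectomized rats on a high-carbohydrate diet dosed by oral gavage 0.5 mg/rat in 0.4% methylcellulose for 20 days; sham-operated group included. Body weight and food intake every 2 days, DEXA body fat on Day 17. Necropsy on day 21, ~24 h post-dose after 6 h fast: serum lipids, glucose, insulin, leptin, tissue weights.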

[3] = test system: ovariectomized female rats; assay: Uterine weight, fat and lipid, 20-day treatment (Example 13); type: in vivo, Rattus norvegicus; settings: 20 days
Protocol: The objective of this study was to compare the effect on uterine, weight, fat and blood lipids following treatment with EM-652.HCl, ERA-923 and lasofoxifene, administered alone or in combination with EM-652.HCl, to ovariectomized female rats. For this purpose, each compound was administered orally for 20 days to ovariectomized female rats and at the end of the treatment period, the uterus and fat were collected and weighed.
d) Diet: • Certified Rodent feed (Lab Diet #5002, pellets) and tap water were provided ad libitum. Randomization:
Seventy rats were separated into 7 groups of 9 to 11 animals for conduct of the study outlined below:
Animals from groups 2 to 9 were ovariectomized under Isoflurane-induced anesthesia on Day 7 of the study.
The vehicle or tested compounds were given as suspension in 0.4% methylcellulose by oral gavage (0.5 ml/gavage/rat) from Day 2 to Day 21 of the study.
Rats were weighed on Study Day 1 and at the necropsy (SD 22).
Approximately 24 hours after the last dosing, overnight fasted rats under Isoflurane-induced anesthesia were killed by exsanguination at the abdominal aorta.
Uteri and retroperitonal adipose tissue were removed and weighed.

[4] = high carbohydrate diet, 0.5 mg/rat oral gavage
[5] = OVX rats, commercial rodent diet, 0.5 mg oral, EM-652.HCl 2.5 mg in combinations

C[C@]12CC[C@H](O)CC1=CC[C@@H]1[C@@H]2CC[C@]2(C)C(=O)CC[C@@H]12 [DHEA, dehydroepiandrosterone]
body weight (aged Sprague-Dawley rats): 550 g

CC1=C(c2ccc(O)cc2)[C@H](c2ccc(OCCN3CCCCC3)cc2)Oc2cc(O)ccc21.Cl [EM-652.HCl, (S)-(+)-7-hydroxy-3-(4′-hydroxyphenyl)-4-methyl-2-(4″-(2′″-piperidino-ethoxy)phenyl)-2H-1-benxopyran hydrochloride]
Lipoprotein lipase activity White retroperitoneal ([1]; lean Zucker female rats): 1349 ± 246 μU/g protein
Lipoprotein lipase activity soleus ([1]; lean Zucker female rats): 60.8 ± 11.1 μU/g protein
Plasma glucose ([1]; lean Zucker female rats): 9.60 ± 0.41 mmol/L
Plasma insulin ([1]; lean Zucker female rats): 0.063 ± 0.012 nmol/L
Plasma total cholesterol ([1]; lean Zucker female rats): 1.57 ± 0.14 mmol/L
Plasma triglycerides ([1]; lean Zucker female rats): 0.83 ± 0.07 mmol/L
Weight ([1]; lean Zucker female rats): 154 ± 5 g
reduction of plasma insulin ([1]; lean female Zucker rats, 2.5 mg/kg/day): 48%
Lipoprotein lipase activity White retroperitoneal ([1]; obese Zucker female rats): 3819 ± 485 μU/g protein
Lipoprotein lipase activity soleus ([1]; obese Zucker female rats): 36.6 ± 7.1 μU/g protein
Plasma glucose ([1]; obese Zucker female rats): 11.70 ± 0.47 mmol/L
Plasma insulin ([1]; obese Zucker female rats): 0.515 ± 0.091 nmol/L
Plasma total cholesterol ([1]; obese Zucker female rats): 3.27 ± 0.97 mmol/L
Plasma triglycerides ([1]; obese Zucker female rats): 22.20 ± 4.44 mmol/L
Weight ([1]; obese Zucker female rats): 291 ± 9 g
effect on plasma insulin ([1]; obese female Zucker rats, 2.5 mg/kg/day): no significant effect
Serum insulin (in words) ([2]; 0.5 mg/rat): decreased
Brown adipose tissue Lipoprotein lipase activity [2, 4]: 900 ± 91 μU/g protein
Brown adipose tissue weight [2, 4]: 0.339 ± 0.038 g
Cumulative food intake [2, 4]: 324 ± 5 g
Serum glucose [2, 4]: 15.9 ± 1.4 mmol/L
Serum insulin [2, 4]: 0.122 ± 0.021 nmol/L
Serum leptin [2, 4]: 1.10 ± 0.22 ng/mL
Serum triglycerides [2, 4]: 0.91 ± 0.17 mmol/L
Soleus muscle Lipoprotein lipase activity [2, 4]: 14.5 ± 4.1 μU/g protein
Soleus muscle weight [2, 4]: 0.118 ± 0.018 g
Total weight [2, 4]: 252 ± 4 g
VastusLateralis muscle weight [2, 4]: 1.00 ± 0.047 g
White adipose tissue inguinal Lipoprotein lipase activity [2, 4]: 684 ± 216 μU/g protein
White adipose tissue inguinal weight [2, 4]: 0.244 ± 0.028 g
White adipose tissue retroperitoneal Lipoprotein lipase activity [2, 4]: 1917 ± 365 μU/g protein
White adipose tissue retroperitoneal weight [2, 4]: 1.32 ± 0.21 g
OVX-induced increase in total serum cholesterol levels ([3]; 0.5 mg): completely prevented
prevention of body weight increase induced by ovariectomy ([3]; OVX rats, 0.5 mg): 64%
Cholesterol [3, 5]: 1.00 ± 0.11 mmol/L
Final Body Weight [3, 5]: 238 ± 4 g
